Data: the NIST ThermoML archive (doi:10.1016/j.fluid.2006.03.015)

Assay: molar heat capacity at constant pressure
Conditions: 101.33 kPa, Liquid

CCCCCCn1cc[n+](C)c1.O=S(=O)([O-])C(F)(F)F [1-hexyl-3-methylimidazolium trifluoromethanesulfonate]
Conditions | molar heat capacity at constant pressure [J/K/mol]
313.14 K, Large sample (1 g) DSC | 517
315.15 K, Small sample (50 mg) DSC | 526
318.15 K, Large sample (1 g) DSC | 522
320.15 K, Small sample (50 mg) DSC | 528
323.17 K, Large sample (1 g) DSC | 525
325.15 K, Small sample (50 mg) DSC | 530
328.13 K, Large sample (1 g) DSC | 527
328.15 K, modulated-temperature differential scanning calorimetry MDSC | 519
330.15 K, Small sample (50 mg) DSC | 532
333.15 K, Large sample (1 g) DSC | 528
333.15 K, modulated-temperature differential scanning calorimetry MDSC | 522
335.15 K, Small sample (50 mg) DSC | 536
338.15 K, modulated-temperature differential scanning calorimetry MDSC | 524
338.16 K, Large sample (1 g) DSC | 531
340.15 K, Small sample (50 mg) DSC | 539
343.15 K, modulated-temperature differential scanning calorimetry MDSC | 528
343.16 K, Large sample (1 g) DSC | 534
345.15 K, Small sample (50 mg) DSC | 541
348.15 K, modulated-temperature differential scanning calorimetry MDSC | 530
348.16 K, Large sample (1 g) DSC | 535
350.15 K, Small sample (50 mg) DSC | 545
353.15 K, modulated-temperature differential scanning calorimetry MDSC | 532
353.18 K, Large sample (1 g) DSC | 539
355.15 K, Small sample (50 mg) DSC | 548
358.12 K, Large sample (1 g) DSC | 542
358.15 K, modulated-temperature differential scanning calorimetry MDSC | 535
360.15 K, Small sample (50 mg) DSC | 551
363.15 K, modulated-temperature differential scanning calorimetry MDSC | 538
363.17 K, Large sample (1 g) DSC | 545
365.15 K, Small sample (50 mg) DSC | 554
368.15 K, Large sample (1 g) DSC | 548
368.15 K, modulated-temperature differential scanning calorimetry MDSC | 540
370.15 K, Small sample (50 mg) DSC | 556
373.15 K, modulated-temperature differential scanning calorimetry MDSC | 543
373.17 K, Large sample (1 g) DSC | 550
375.15 K, Small sample (50 mg) DSC | 559
378.15 K, modulated-temperature differential scanning calorimetry MDSC | 544
378.17 K, Large sample (1 g) DSC | 552
380.15 K, Small sample (50 mg) DSC | 562
383.15 K, modulated-temperature differential scanning calorimetry MDSC | 547
383.17 K, Large sample (1 g) DSC | 555
385.15 K, Small sample (50 mg) DSC | 565
388.15 K, modulated-temperature differential scanning calorimetry MDSC | 549
388.16 K, Large sample (1 g) DSC | 558
390.15 K, Small sample (50 mg) DSC | 568
393.15 K, Large sample (1 g) DSC | 560
393.15 K, modulated-temperature differential scanning calorimetry MDSC | 552
395.15 K, Small sample (50 mg) DSC | 571
398.15 K, modulated-temperature differential scanning calorimetry MDSC | 554
398.18 K, Large sample (1 g) DSC | 562
400.15 K, Small sample (50 mg) DSC | 574
403.15 K, modulated-temperature differential scanning calorimetry MDSC | 556
403.16 K, Large sample (1 g) DSC | 564
405.15 K, Small sample (50 mg) DSC | 577
408.13 K, Large sample (1 g) DSC | 566
408.15 K, modulated-temperature differential scanning calorimetry MDSC | 557
410.15 K, Small sample (50 mg) DSC | 580
413.15 K, modulated-temperature differential scanning calorimetry MDSC | 562
413.16 K, Large sample (1 g) DSC | 569
415.15 K, Small sample (50 mg) DSC | 583
418.15 K, Large sample (1 g) DSC | 573
420.15 K, Small sample (50 mg) DSC | 586
423.17 K, Large sample (1 g) DSC | 572
425.15 K, Small sample (50 mg) DSC | 589

CCCCCCCCn1cc[n+](C)c1.O=S(=O)([O-])C(F)(F)F [1-octyl-3-methylimidazolium trifluoromethanesulfonate]
Conditions | molar heat capacity at constant pressure [J/K/mol]
313.17 K, Large sample (1 g) DSC | 588
315.15 K, Small sample (50 mg) DSC | 604
318.14 K, Large sample (1 g) DSC | 592
320.15 K, Small sample (50 mg) DSC | 608
323.13 K, Large sample (1 g) DSC | 595
325.15 K, Small sample (50 mg) DSC | 612
328.13 K, Large sample (1 g) DSC | 595
328.15 K, modulated-temperature differential scanning calorimetry MDSC | 599
330.15 K, Small sample (50 mg) DSC | 612
333.14 K, Large sample (1 g) DSC | 595
333.15 K, modulated-temperature differential scanning calorimetry MDSC | 603
335.15 K, Small sample (50 mg) DSC | 616
338.14 K, Large sample (1 g) DSC | 598
338.15 K, modulated-temperature differential scanning calorimetry MDSC | 606
340.15 K, Small sample (50 mg) DSC | 620
343.14 K, Large sample (1 g) DSC | 599
343.15 K, modulated-temperature differential scanning calorimetry MDSC | 609
345.15 K, Small sample (50 mg) DSC | 623
348.15 K, modulated-temperature differential scanning calorimetry MDSC | 612
348.17 K, Large sample (1 g) DSC | 599
350.15 K, Small sample (50 mg) DSC | 627
353.13 K, Large sample (1 g) DSC | 601
353.15 K, modulated-temperature differential scanning calorimetry MDSC | 616
355.15 K, Small sample (50 mg) DSC | 631
358.15 K, Large sample (1 g) DSC | 605
358.15 K, modulated-temperature differential scanning calorimetry MDSC | 619
360.15 K, Small sample (50 mg) DSC | 634
363.15 K, Large sample (1 g) DSC | 610
363.15 K, modulated-temperature differential scanning calorimetry MDSC | 622
365.15 K, Small sample (50 mg) DSC | 637
368.15 K, Large sample (1 g) DSC | 616
368.15 K, modulated-temperature differential scanning calorimetry MDSC | 625
370.15 K, Small sample (50 mg) DSC | 641
373.14 K, Large sample (1 g) DSC | 617
373.15 K, modulated-temperature differential scanning calorimetry MDSC | 628
375.15 K, Small sample (50 mg) DSC | 644
378.12 K, Large sample (1 g) DSC | 621
378.15 K, modulated-temperature differential scanning calorimetry MDSC | 631
380.15 K, Small sample (50 mg) DSC | 648
383.15 K, modulated-temperature differential scanning calorimetry MDSC | 635
383.16 K, Large sample (1 g) DSC | 626
385.15 K, Small sample (50 mg) DSC | 652
388.15 K, Large sample (1 g) DSC | 631
388.15 K, modulated-temperature differential scanning calorimetry MDSC | 637
390.15 K, Small sample (50 mg) DSC | 655
393.13 K, Large sample (1 g) DSC | 636
393.15 K, modulated-temperature differential scanning calorimetry MDSC | 640
395.15 K, Small sample (50 mg) DSC | 658
398.15 K, modulated-temperature differential scanning calorimetry MDSC | 642
398.17 K, Large sample (1 g) DSC | 639
400.15 K, Small sample (50 mg) DSC | 663
403.14 K, Large sample (1 g) DSC | 642
403.15 K, modulated-temperature differential scanning calorimetry MDSC | 645
405.15 K, Small sample (50 mg) DSC | 666
408.15 K, modulated-temperature differential scanning calorimetry MDSC | 648
408.18 K, Large sample (1 g) DSC | 644
410.15 K, Small sample (50 mg) DSC | 670
413.15 K, Large sample (1 g) DSC | 647
413.15 K, modulated-temperature differential scanning calorimetry MDSC | 651
415.15 K, Small sample (50 mg) DSC | 673
418.18 K, Large sample (1 g) DSC | 649
420.15 K, Small sample (50 mg) DSC | 677
423.14 K, Large sample (1 g) DSC | 651
425.15 K, Small sample (50 mg) DSC | 680

c1ccccc1 [benzene]
Small sample (50 mg) DSC
Conditions | molar heat capacity at constant pressure [J/K/mol]
295.15 K | 134.8
300.15 K | 135.4
305.15 K | 136.5
310.15 K | 137.9
315.15 K | 139.2
320.15 K | 140.85
325.15 K | 142.5
330.15 K | 144.15
335.15 K | 145.8
340.15 K | 147.55
345.15 K | 149.3
350.15 K | 151.2

C1CCOC1 [tetrahydrofuran]
Small sample (50 mg) DSC
Conditions | molar heat capacity at constant pressure [J/K/mol]
180.15 K | 105.5
185.15 K | 105.6
190.15 K | 105.8
195.15 K | 106
200.15 K | 106.3
205.15 K | 106.5
210.15 K | 106.7
215.15 K | 107.2
220.15 K | 107.6
225.15 K | 107.9
230.15 K | 108.5
235.15 K | 109.2
240.15 K | 109.8
245.15 K | 110.6
250.15 K | 111.5
255.15 K | 112.4
260.15 K | 113.4
265.15 K | 114.4
270.15 K | 115.5
275.15 K | 116.6
280.15 K | 117.9
285.15 K | 119.2
290.15 K | 120.3
295.15 K | 121.7
300.15 K | 123.1
305.15 K | 124.5
310.15 K | 126
315.15 K | 127.3
320.15 K | 128.8
325.15 K | 130.5

O [water]
Small sample (50 mg) DSC
Conditions | molar heat capacity at constant pressure [J/K/mol]
305.15 K | 74.95
310.15 K | 74.96
315.15 K | 74.9
320.15 K | 74.93
325.15 K | 75.01
330.15 K | 75.09
335.15 K | 75.11
340.15 K | 75.23
345.15 K | 75.31
350.15 K | 75.43
355.15 K | 75.53
360.15 K | 75.59
365.15 K | 75.72
370.15 K | 75.8
